# Assay results from patent US6117840A, “CS-1 peptidomimetics, compositions and methods of using the same” (Cytel Corporation, priority 1997, dated 2000).
# Square brackets hold non-standard residues; d marks the D form. Peptide text beside a SMILES is read from it. * marks the point of attachment. Cha = N[C@@H](CC1CCCCC1)C(=O)O; NHPhenethyl = c1ccc(CCN*)cc1; Phg = N[C@H](C(=O)O)c1ccccc1; Morpholide = C1CN(*)CCO1; Nle = CCCC[C@H](N)C(=O)O; Piperidide = C1CCN(*)CC1; PhAc = O=C(Cc1ccccc1)*; Inp = O=C(O)C1CCNCC1; Bz = O=C(c1ccccc1)*
# Target: T1, VLA-4 (Homo sapiens, UniProt P05556+P13612)
# T1 construct: host or cells: Jurkat (human T lymphoblastic line)
# Format: cell-based
# Conditions: compared to standard 10-mer / B12
# Protocol: Binding inhibition is measured here as a concentration of peptide that inhibits one-half the binding between a standard number of Jurkat cells and a standard amount of CS-1 peptide bound to the surface of a microtiter plate well. Those concentrations are conveniently expressed as IC50 values, smaller numbers indicating a lower concentration required to inhibit 50 percent binding and therefore greater potency. Further specifics of this assay are provided hereinafter.
# Jurkat cells (ATCC TIB 152), a human T lymphoblastic line, labeled with ^51 chromium were used to assay in vitro binding inhibition provided by various peptides discussed herein.
# The plates were prepared as follows: The 25-mer CS1 peptide (SEQ ID NO:1) dissolved at 0.5-1 μg/ml in a buffer of 0.1M NaHCO3 at pH 9.5 tha also contained 10 μg/ml of bovine serum albumin (BSA) or a conjugate o the CS1 peptide linked to ovalbumin (CS1-OVA) dissolved at 1-2.5 μg/ml in the same buffer was used as the substrate. Each well of the microtiter plates was coated with 50 μl of substrate or buffer alone for controls The wells were permitted to dry out completely and were then rinsed twice with PBS at pH 7.4. Nonspecific binding sites of each well were then blocked using 200 μl per well of RPMI/1 percent BSA for two hours at room temperature. Both solid phaseaffixed substrates provided similar results.
# Jurkat cells (3-5×10^6 cells) were placed into a 15 ml Falcon.TM roundbottom tube with a cap. The tube was centrifuged, and the extra medium was then removed.
# Two hundred microliters of a ^51 Cr labeling solution were added to th centrifuged cells and maintained in contact with the cells for 90-120 minutes in a warm room. This procedure typically provides about 50,000-100,000 cpm/well with about 80-100 percent cell viability. Longer contact times provide a greater amount of labeling but lower cell viability.
# The labeled cells are washed with (i) complete medium, (ii) 1 mM EDTA/PBS and then (iii) RPMI/1 percent BSA free of serum components. The cells are centrifuged after each washing. The cells are finally resuspended in serumfree RPMI/1 percent BSA at a concentration of 1×10^6 viabl cells/ml, which provides a concentration that is diluted by onehalf in th assay.
# Inhibitor peptides are prepared as stock solutions at 20 mg/ml in DMSO in 1.5 ml cryogenic screwcap vials, and were stored at -70° C. Using Flow™ roundbottom or Vbottom microtiter plates, the inhibitor peptides were prepared at twice the assay concentration in RPMI/1 percent BSA at 6 μl/well.
# Four initial dilutions were typically used.
# The ^51 Crlabeled cells (1×10^6 cells at 60 μl/well) were then admixed with the diluted peptide solutions. The admixtures were maintained at room temperature (about 22° C.) for 30 minutes.
# One hundred microliters of each inhibitor peptide/cell admixture were transferred to the substratecoated wells. This was done in triplicate for each dilution. The resulting plates were incubated for 30 minutes at 37° C. and then washed gently three times with RPMI/1 percent BSA at 200 μl/well. Binding was observed microscopically, particularly after the second wash.
# The bound cells were then lysed by the addition of a 0.5 percent solution of sodium dodecylsulfate in water at 100 μl/well. The resulting solutions were then processed for counting and calculation of IC50 values following usual procedures. Appropriate positive and negative controls were used with each plate so that the results of separate assays could be normalized and compared.
# T1 sequence (P13612 34-1032): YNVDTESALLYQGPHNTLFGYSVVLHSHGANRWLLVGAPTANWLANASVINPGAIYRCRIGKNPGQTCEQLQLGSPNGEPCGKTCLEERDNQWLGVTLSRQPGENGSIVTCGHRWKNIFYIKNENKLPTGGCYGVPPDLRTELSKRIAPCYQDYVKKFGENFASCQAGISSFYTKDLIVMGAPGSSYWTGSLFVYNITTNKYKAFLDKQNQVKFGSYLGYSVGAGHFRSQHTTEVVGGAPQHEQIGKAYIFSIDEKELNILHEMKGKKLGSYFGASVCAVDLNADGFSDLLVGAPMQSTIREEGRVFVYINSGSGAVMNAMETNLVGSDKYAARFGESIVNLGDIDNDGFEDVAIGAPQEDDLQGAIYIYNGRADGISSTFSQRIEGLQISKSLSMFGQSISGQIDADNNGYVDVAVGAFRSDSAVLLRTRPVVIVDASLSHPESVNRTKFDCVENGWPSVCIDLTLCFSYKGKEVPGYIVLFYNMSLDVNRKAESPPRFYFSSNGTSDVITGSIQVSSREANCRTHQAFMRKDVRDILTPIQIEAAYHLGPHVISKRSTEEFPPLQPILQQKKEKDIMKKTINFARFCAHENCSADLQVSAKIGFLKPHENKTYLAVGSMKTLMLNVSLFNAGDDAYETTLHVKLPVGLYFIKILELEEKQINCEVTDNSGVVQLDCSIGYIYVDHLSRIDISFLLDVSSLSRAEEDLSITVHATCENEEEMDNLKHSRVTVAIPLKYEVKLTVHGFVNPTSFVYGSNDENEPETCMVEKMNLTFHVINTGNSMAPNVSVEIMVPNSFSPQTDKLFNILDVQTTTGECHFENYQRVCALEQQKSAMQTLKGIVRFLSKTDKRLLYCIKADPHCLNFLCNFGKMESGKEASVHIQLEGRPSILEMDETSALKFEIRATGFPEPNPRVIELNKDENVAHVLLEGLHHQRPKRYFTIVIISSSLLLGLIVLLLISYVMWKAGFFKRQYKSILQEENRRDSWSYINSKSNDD
# T1 sequence (P05556 21-798): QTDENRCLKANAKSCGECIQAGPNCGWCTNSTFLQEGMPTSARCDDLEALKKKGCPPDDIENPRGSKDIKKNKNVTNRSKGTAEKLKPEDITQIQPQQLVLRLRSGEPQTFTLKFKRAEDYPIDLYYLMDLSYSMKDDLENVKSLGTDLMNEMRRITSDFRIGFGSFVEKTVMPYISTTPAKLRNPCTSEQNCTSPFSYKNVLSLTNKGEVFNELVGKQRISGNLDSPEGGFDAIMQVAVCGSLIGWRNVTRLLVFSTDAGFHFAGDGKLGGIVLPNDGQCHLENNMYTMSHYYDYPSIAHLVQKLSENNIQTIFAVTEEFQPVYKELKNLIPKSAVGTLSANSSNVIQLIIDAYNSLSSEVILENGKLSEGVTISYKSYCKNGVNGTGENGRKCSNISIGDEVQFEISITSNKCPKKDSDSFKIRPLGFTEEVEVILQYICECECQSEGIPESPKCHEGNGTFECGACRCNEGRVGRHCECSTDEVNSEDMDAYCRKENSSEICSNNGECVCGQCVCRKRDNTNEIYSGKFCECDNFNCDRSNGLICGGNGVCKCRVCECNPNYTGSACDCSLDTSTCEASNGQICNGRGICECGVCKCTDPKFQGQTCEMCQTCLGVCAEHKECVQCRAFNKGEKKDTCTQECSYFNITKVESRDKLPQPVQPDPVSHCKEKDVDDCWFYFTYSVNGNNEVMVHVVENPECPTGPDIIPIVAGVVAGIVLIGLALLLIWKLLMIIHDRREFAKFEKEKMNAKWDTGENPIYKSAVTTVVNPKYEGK
row,binding inhibition (in words),Compound
1,three times more potent,"CC[C@H](C)[C@H](NC(=O)[C@H](CCC(=O)O)NC(=O)[C@@H]1CCCN1C(=O)CNC(=O)[C@H](Cc1c[nH]cn1)NC(=O)[C@H](CC(C)C)NC(=O)[C@H](CC(N)=O)NC(=O)[C@@H]1CCCN1C(=O)[C@H](Cc1c[nH]cn1)NC(=O)[C@@H]1CCCN1C(=O)[C@H](CC(C)C)NC(=O)[C@@H](NC(=O)[C@@H](NC(=O)[C@H](CC(C)C)NC(=O)[C@H](CCC(N)=O)NC(=O)[C@@H]1CCCN1C(=O)[C@H](CC(C)C)NC(=O)[C@H](CCC(=O)O)NC(=O)[C@@H](N)CC(=O)O)C(C)C)[C@@H](C)O)C(=O)N[C@@H](CC(C)C)C(=O)N[C@@H](CC(=O)O)C(=O)N[C@H](C(=O)N1CCC[C@H]1C(=O)N[C@@H](CO)C(=O)N[C@H](C(=O)O)[C@@H](C)O)C(C)C [CS-1 peptide, reference compound] (H-DELPQLVTLPHPNLHGPEILDVPST-OH)"

# Same assay, conditions: relative to standard peptide SEQ ID NO:3 (=1), normalized IC50; about one-tenth or less of SEQ ID NO:3 assigned zero
row,Compound,RELATIVE POTENCY (inhibition of VLA-4 binding CS-1)
1,"CC(C)C[C@H](NC(=O)Cc1ccccc1)C(=O)N[C@@H](CC(=O)O)C(=O)N[C@@H](Cc1ccc(O)cc1)C(=O)N1CCOCC1 [X L D Y Z phenylacetyl morpholinamide, N--phenylacetyl--Leu--Asp--Tyr--morpholinamide] (PhAc-Leu-Asp-Tyr-Morpholide)",313
2,CC(C)C[C@H](NC(=O)Cc1ccccc1)C(=O)N[C@@H](CC(=O)O)C(=O)N[C@@H](Cc1ccccc1)C(=O)N1CCS(=O)(=O)CC1,1060
3,CCCCCCCCCCCCCCCCCC(=O)OC1CCN(C(=O)[C@H](Cc2ccccc2)NC(=O)[C@H](CC(=O)O)NC(=O)[C@H](CC(C)C)NC(=O)Cc2ccccc2)CC1,< 1
4,CC(C)C[C@H](NC(=O)Cc1ccccc1)C(=O)N[C@@H](CC(=O)O)C(=O)NC(c1ccccc1)c1ccccc1 [X L D Z phenylacetyl benzylhydrylamide],3
5,CC(C)C[C@H](NC(=O)Cc1ccccc1)C(=O)N[C@@H](CC(=O)O)C(=O)N[C@@H](Cc1ccccc1)C(=O)N1CCC(C(=O)O)CC1 (PhAc-LDF[Inp]-OH),828
6,CC(C)C[C@H](NC(=O)Cc1ccccc1)C(=O)N[C@@H](CC(=O)O)C(=O)N(Cc1ccccc1)Cc1ccccc1 [X L D Z phenylacetyl dibenzylamide],0
7,CCCC[C@H](NC(=O)Cc1ccccc1)C(=O)N[C@@H](CC(=O)O)C(=O)N[C@@H](Cc1ccccc1)C(=O)N1CCC[C@@H]1C(N)=O [X K D F p phenylacetyl amide J = Nle] (PhAc-[Nle]DF[dP]-NH2),49
8,CC(C)C[C@H](NC(=O)Cc1ccccc1)C(=O)N[C@@H](CC(=O)O)C(=O)NN(Cc1ccccc1)C(=O)C1CCCC1,1
9,CC(C)C[C@H](NC(=O)Cc1ccccc1)C(=O)N[C@@H](CC(=O)O)C(=O)N[C@@H](Cc1ccccc1)C(N)=O [X L D F phenylacetyl amide] (PhAc-Leu-Asp-Phe-NH2),< 1
10,CC(C)[C@H](NC(=O)[C@H](CC(=O)O)NC(=O)[C@H](CC1CCCCC1)NC(=O)c1ccccc1)C(=O)N1CCC[C@@H]1C(N)=O (Bz-[Cha]DV[dP]-NH2),11
11,CC(C)C[C@H](NC(=O)Cc1ccccc1)C(=O)N[C@@H](CC(=O)O)C(=O)NC1Cc2ccccc2N(CCN2CCOCC2)C1=O (some centres unmarked),20
12,"CC(C)C[C@H](NC(=O)Cc1ccccc1)C(=O)N[C@@H](CC(=O)O)C(=O)N[C@@H](Cc1ccccc1)C(=O)N1CCCCC1 [X L D F Z phenylacetyl piperidinamide, N--phenylacetyl--Leu--Asp--Phe--piperidinamide] (PhAc-Leu-Asp-Phe-Piperidide)",231
13,CC(C)C[C@H](NC(=O)Cc1ccccc1)C(=O)N[C@@H](CC(=O)O)C(=O)NC1CCCCN(CC(N)=O)C1=O (some centres unmarked),97
14,CC(C)C[C@H](NC(=O)Cc1ccccc1)C(=O)N[C@@H](CC(=O)O)C(=O)NCCc1ccccc1 [X L D Z phenylacetyl phenethylamide] (PhAc-Leu-Asp-NHPhenethyl),19
15,CCCCCCCCCC(=O)OC1CCN(C(=O)[C@H](Cc2ccccc2)NC(=O)[C@H](CC(=O)O)NC(=O)[C@H](CC(C)C)NC(=O)Cc2ccccc2)CC1,< 1
16,CC(C)C[C@H](NC(=O)Cc1ccccc1)C(=O)N[C@@H](CC(=O)O)C(=O)NNC(=O)OC(C)(C)C [X L D Z phenylacetyl N'-t-Boc-hydrazide],2
17,CC(C)C[C@H](NC(=O)Cc1ccccc1)C(=O)N[C@@H](CC(=O)O)C(=O)N[C@@H](Cc1ccccc1)C(=O)N1CCNCC1 [X L D F Z phenylacetyl piperazinamide],506
18,CC(C)C[C@H](NC(=O)Cc1ccccc1)C(=O)N[C@@H](CC(=O)O)C(=O)NC1CCCCNC1=O (some centres unmarked),27
19,CC(C)C[C@H](NC(=O)Cc1ccccc1)C(=O)N[C@@H](CC(=O)O)C(=O)N[C@H](C(=O)N1CCC[C@@H]1C(N)=O)c1ccccc1 (PhAc-LD[Phg][dP]-NH2),61
20,CC(C)C[C@H](NC(=O)Cc1ccccc1)C(=O)N[C@@H](CC(=O)O)C(=O)N[C@@H](Cc1ccccc1)C(=O)N1CC(O)C(O)C1 (some centres unmarked),194
21,"CC(C)C[C@H](NC(=O)Cc1ccccc1)C(=O)N[C@@H](CC(=O)O)C(=O)N[C@@H](Cc1ccccc1)C(=O)N1CCOCC1 [X L D F Z phenylacetyl morpholinamide, N--phenylacetyl--Leu--Asp--Phe--morpholinamide] (PhAc-Leu-Asp-Phe-Morpholide)",844
22,CC(C)C[C@H](NC(=O)Cc1ccccc1)C(=O)N[C@@H](CC(=O)O)C(=O)N[C@@H](Cc1ccccc1)C(=O)N1CCN(CC(N)=O)CC1,319
23,"CC(C)C[C@H](NC(=O)Cc1ccccc1)C(=O)N[C@@H](CC(=O)O)C(=O)N[C@@H](Cc1ccc(O)cc1)C(=O)N1CCC[C@@H]1C(N)=O [X L D Y p phenylacetyl amide, N--phenylacetyl--Leu--Asp--Tyr--D--Pro--NH2] (PhAc-LDY[dP]-NH2)",640
24,CC(C)C[C@H](NC(=O)Cc1ccccc1)C(=O)N[C@@H](CC(=O)O)C(=O)NC(Cc1ccccc1)Cc1ccccc1,0
25,"CC(C)C[C@H](NC(=O)Cc1ccccc1)C(=O)N[C@@H](CC(=O)O)C(=O)N[C@H](C(=O)N1CCC[C@@H]1C(N)=O)C(C)C [X L D V p phenylacetyl amide, N--phenylacetyl--Leu--Asp--Val--D--Pro--NH2]",106
26,CC(C)C[C@H](NC(=O)Cc1ccccc1)C(=O)N[C@@H](CC(=O)O)C(=O)NC1CCN(C2CCCCC2)C1=O (some centres unmarked),7
27,CC(C)C[C@H](NC(=O)Cc1ccccc1)C(=O)N[C@@H](CC(=O)O)C(=O)N[C@@H](Cc1ccccc1)C(=O)N1CCSCC1,493
28,CC(C)C[C@H](NC(=O)c1ccccc1)C(=O)N[C@@H](CC(=O)O)C(=O)N[C@@H](Cc1ccccc1)C(=O)N1CCC[C@@H]1C(N)=O [X L D F p benzoyl amide] (Bz-LDF[dP]-NH2),75
29,CC(C)C[C@H](NC(=O)Cc1ccccc1)C(=O)N[C@@H](CC(=O)O)C(=O)N[C@@H](Cc1ccccc1)C(=O)N1CCN(CC(=O)O)CC1,2579

# Same assay, conditions: relative to standard peptide SEQ ID NO:3 (=1), normalized IC50; about one-tenth or less of SEQ ID NO:3 assigned zero; listed as Leu--Asp--Val (LDV) Nfre amine Camide
row,RELATIVE POTENCY (inhibition of VLA-4 binding CS-1),Compound
1,zero,"CC(C)C[C@H](N)C(=O)N[C@@H](CC(=O)O)C(=O)N[C@H](C(N)=O)C(C)C [L D V free amine amide, reference compound] (H-Leu-Asp-Val-NH2)"

# Same assay, conditions: relative to standard peptide SEQ ID NO:3 (=1), normalized IC50; about one-tenth or less of SEQ ID NO:3 assigned zero; listed as X L D Y P phenylacetyl amide
row,Compound,RELATIVE POTENCY (inhibition of VLA-4 binding CS-1)
1,"CC(C)C[C@H](NC(=O)Cc1ccccc1)C(=O)N[C@@H](CC(=O)O)C(=O)N[C@@H](Cc1ccc(O)cc1)C(=O)N1CCC[C@@H]1C(N)=O [X L D Y p phenylacetyl amide, N--phenylacetyl--Leu--Asp--Tyr--D--Pro--NH2] (PhAc-LDY[dP]-NH2)",405
